The values that follow come from PMC5652693, “Coupling to a cancer-selective heparan-sulfate-targeted branched peptide can by-pass breast cancer cell resistance to methotrexate” (Oncotarget, 2017).

“Also recorded” adds a separate entry of the source.

Data set [1] concerns MCF-7 human breast adenocarcinoma cells. Put plainly: Cytotoxicity (MTT growth inhibition) in MTX-sensitive MCF-7 cells. In kind it is cell-based. Particulars: MCF7, MCF-7, 5 × 10^3 cells per well, 6 days at 37°C, twice in triplicate (Figure 6: mean of six experiments ± SD). As to the method:
(§1) MCF-7 human breast adenocarcinoma, MDA-MB 231 human breast adenocarcinoma, T-24 human bladder carcinoma, PANC-1 human pancreatic carcinoma, HT29 human colon adenocarcinoma, A375 human melanoma, HT-1376 human bladder carcinoma and OVCAR-3 human ovarian carcinoma cells were grown in their recommended media supplemented with 10% fetal calf serum, 200 μg/ml glutamine, 100 μg/ml streptomycin, 60 μg/ml penicillin, and maintained at 37°C, 5% CO2. MDA-MB 231 was maintained at 37°C without CO2. Cell lines were purchased from ATCC.
(§2) MCF-7 and MDA-MB 231 cells were plated at a density of 5 × 10^3 per well in 96-well microplates. […] Cell growth was analyzed after 6 days of incubation at 37°C. Growth inhibition was assessed by 3-(4,5-dimethylthiazol-2-yl)-2,5-diphenyltetrazolium bromide (MTT). Cytotoxicity of drug-conjugated NT4 was compared with that of the corresponding free drugs. The experiment was performed twice in triplicate. EC50 values were calculated by non-linear regression analysis using Graph Pad Prism 5.03 software.

For data set [2], the system named is MDA-MB 231 human breast adenocarcinoma cells. Description: Cytotoxicity (MTT growth inhibition) in MTX-resistant MDA-MB 231 cells. It is filed as cell-based. Particulars: MDA-MB 231, 5 × 10^3 cells per well, 6 days at 37°C, twice in triplicate (Figure 6: mean of six experiments ± SD). How it is done: as §1, §2
The test system of data set [3] is T-24 human bladder carcinoma cells. Description: MTX cytotoxicity screening, T-24. It is filed as cell-based. How it is done:
as §1
(§3) MCF-7 and MDA-MB 231 cells were plated at a density of 5 × 10^3 per well in 96-well microplates. […] Cell growth was analyzed after 6 days of incubation at 37°C. Growth inhibition was assessed by 3-(4,5-dimethylthiazol-2-yl)-2,5-diphenyltetrazolium bromide (MTT). Cytotoxicity of drug-conjugated NT4 was compared with that of the corresponding free drugs. The experiment was performed twice in triplicate. EC50 values were calculated by non-linear regression analysis using Graph Pad Prism 5.03 software. Values from untreated controls gave 100% cell viability.

In data set [4] the test system is A375 human melanoma cells. Put plainly: MTX cytotoxicity screening, A375. To be noted: A-375. In kind it is cell-based. As to the method:
as §1, §3

For data set [5], the system named is HT-1376 human bladder carcinoma cells. Put plainly: MTX cytotoxicity screening, HT-1376. It is filed as cell-based. As to the method:
as §1, §3

Data set [6] relates to OVCAR-3 human ovarian carcinoma cells. Put plainly: MTX cytotoxicity screening, OVCAR-3. In kind it is cell-based. How it is done: as §1, §3
A further data set relates to MCF-7 cells. Put plainly: Cytotoxicity with and without heparin, MCF-7. In kind it is cell-based, human. To be noted: MCF-7, 610 pM to 10 μM compound in the presence of 1 μM heparin, 6 days at 37°C, MTT. As to the method: as §2
For data set [7], the system named is HT29 human colon adenocarcinoma cells. Description: MTX cytotoxicity screening, HT29. It is filed as cell-based. Particulars: HT-29. How it is done:
as §1, §3

The test system of another data set is MDA-MB 231 cells. Description: Cytotoxicity with and without heparin, MDA-MB 231. It is filed as cell-based, human. Particulars: MDA-MB 231, 610 pM to 10 μM compound in the presence of 1 μM heparin, 6 days at 37°C, MTT. As to the method: as §2
Data set [8] has as its system PANC-1 human pancreatic carcinoma cells. Put plainly: MTX cytotoxicity screening, PANC-1. In kind it is cell-based. As to the method: as §1, §3
Data set [9] deals with MCF-7 and MDA-MB 231 cells. Description: Transporter-mediated efflux of Rho 123 by flow cytometry. It is filed as cell-based, human. Particulars: 1 μM Rho 123 for 10 minutes, washed, fluorescence monitored 0-120 minutes by flow cytometry. How it is done:
(§4) All experiments were performed using 2 × 10^5 MCF-7 or MDA-MB 231 cells in 96 well U-bottom plates. All dilutions were performed in PBS, containing 5 mM EDTA and 0.5% BSA. 10,000 events were evaluated in a BD FACS Canto II or a BD FACS Calibur (Becton Dickinson, NJ USA). The results were analyzed by FCS Express 6 Flow cytometry software.
To analyze active cell drug export mechanisms, MCF-7 and MDA-MB 231 cells were exposed to 1 μM Rho 123 for 10 minutes, then washed twice with PBS-5 mM EDTA-[…] to remove excess of Rho 123, and fluorescence was monitored immediately (T0) and after 10, 20, 30, 45, 60, 90 and 120 minutes. Each step was followed by three washes in PBS-5 mM EDTA-0.5% BSA. P values were calculated using two-tailed Student's t-test (99% confidence interval) using Graph Pad Prism 5.03 software.

The test system of data set [10] is orthotopic model of breast cancer. On the set-up: method as in PMID 26626158. To be noted: orthotopic model of breast cancer in mice, identical experimental conditions for conjugate and free drug; cited from earlier work. The text has this:
In previous studies we investigated the cancer selectivity of tetra-branched peptides containing the sequence of human neurotensin, which we named NT4. We developed theranostic molecules for tumor imaging or therapy by coupling NT4 to different functional units or liposomes.

Data set [11] has as its system NT4 binding to MCF-7 cells. Put plainly: Inhibition of NT4 binding by heparin or heparin binding proteins (flow cytometry), MCF-7. It is filed as cell-based, human. Particulars: 250 nM biotinylated NT4; heparin 20, 10 and 1 μg/ml or 1 μM Midkine or Apolipoprotein E4; 30 min, room temperature; Streptavidin-FITC. How it is done:
as §4
(§5) Inhibition of NT4 binding by heparin was carried out incubating cells with 250 nM biotinylated NT4 and various concentrations (20 μg/ml, 10 μg/ml and 1 μg/ml) of heparin for 30 min at room temperature. Inhibition of NT4 binding by heparin binding proteins was carried out incubating cells with 250 nM biotinylated NT4 and 1 μM Midkine or Apolipoprotein E4 for 30 min at room temperature. Cells were finally incubated with 1 μg/ml Streptavidin-FITC.
On the technique in general: Flow cytometry measures light scatter and fluorescence of single cells or particles in a stream.

Data set [12] deals with NT4 binding to MDA-MB 231 cells. Description: Inhibition of NT4 binding by heparin or heparin binding proteins (flow cytometry), MDA-MB 231. It is filed as cell-based, human. To be noted: 250 nM biotinylated NT4; heparin 20, 10 and 1 μg/ml or 1 μM Midkine or Apolipoprotein E4; 30 min, room temperature; Streptavidin-FITC. As to the method: as §4, §5

As for `CN(Cc1cnc2nc(N)nc(N)c2n1)c1ccc(C(=O)N[C@@H](CCC(=O)O)C(=O)O)cc1` [MTX, methotrexate], the concentration for a half-maximal effect (EC50) (commonly the concentration at which the effect is half-maximal) in data set [1] came to 25.8 nM; in data set [2], 506 nM; in data set [3] it was 80.7 nM; in data set [4] it was 33.7 nM; in [5] it was 171 nM; in data set [6] it was 89.5 nM. The values for the EC50 in data set [7] and in data set [8] were 60.9 nM and 23.4 nM, respectively. Besides, the “effect of heparin on cytotoxicity” value in the data set on MCF-7 cells and in the data set on MDA-MB 231 cells was “did not affect” throughout.

Consider `COC(=O)c1ccccc1-c1c2ccc(=N)cc-2oc2cc(N)ccc12` [Rho 123, Rhodamine 123], for which the “drug efflux (Rho 123 signal decrease) compared between cell lines” value in [9] was “comparable in the two cell lines”.

With `CC(=O)O[C@H]1C(=O)[C@@]2(C)[C@H]([C@H](OC(=O)c3ccccc3)[C@]3(O)C[C@H](OC(=O)[C@H](O)[C@@H](NC(=O)c4ccccc4)c4ccccc4)C(C)=C1C3(C)C)[C@]1(OC(C)=O)CO[C@@H]1C[C@@H]2O` [paclitaxel], the tumor regression result in data set [10] is “not achieved”.

Regarding “Apolipoprotein E4: heparin binding protein”, the “inhibition of NT4 binding to MCF-7 cells” value in data set [11] is listed as “inhibited”. Also, the “inhibition of NT4 binding to MDA-MB 231 cells” value in [12] is given as “inhibited”.

As to heparin, in [11], the “inhibition of NT4 binding to MCF-7 cells” value was “inhibited; also recorded: abolished”. In addition, in [12], the “inhibition of NT4 binding to MDA-MB 231 cells” value is given as “inhibited; also recorded: abolished”.

B1: Midkine: heparin binding protein (protein, UniProt P21741 21-143, looked up)
Midkine: VAKKKDKVKKGGPGSECAEWAWGPCTPSSKDCGVGFREGTCGAQTQRIRCRVPCNWKKEFGADCKYKFENWGACDGGTGTKVRQGTLKKARYNAQCQETIRVTKPCTPKTKAKAKAKKGKGKD
As to B1, the “inhibition of NT4 binding to MCF-7 cells” value in data set [11] is given as “inhibited”. Also, the “inhibition of NT4 binding to MDA-MB 231 cells” value in [12] is given as “inhibited”.
